Patent US20140256735A1, “METHOD FOR ASSESSING A LIVER OF A PATIENT HAVING A CHRONIC HEPATITIS B VIRUS INFECTION” (PURDUE RESEARCH FOUNDATION, priority 2011, published 2014)

Key:
Type in all cases: cell-based
[1] = tested on: proliferation gene cluster and Suz12 repressed genes; test: Real-time PCR of proliferation gene cluster and Suz12 repressed genes in HepAD38 cells; details: day 10 of HBV replication, 500 nM for 24 h, relative to GAPDH
Description: (§1) FIGS. 7A-D show enhanced expression of the Suz12 repressed genes and proliferation genes in the presence of hepatitis B virus replication. […] HepAD38 cells were grown with (+) or without (−) tetracycline for 10 days, i.e. without (−) or with (+) hepatitis B virus replication, respectively. Hepatitis B virus genome equivalents were quantified by real-time PCR of DNA isolated from purified intracellular virions as described (Wang et al., Hepatology, 53:1137-47, 2011). (Left panel) Effect of DMSO addition (5.0 μl) on hepatitis B virus replication. (Right panel) 250 nM or 500 nM BI 2536 dissolved in DMSO (5.0 μl) added on day 8 for 48 h or day 9 for 24 h, as indicated, prior to cell harvesting. Results represent the average of three independent experiments. Error bars indicate+/−standard 1 error of the mean. […] Relative intensity of indicated protein levels was quantified by ImageJ software vs. actin. A representative experiment is shown from three independent experiments. […] Quantification is relative to GAPDH used as internal control. Results are from three independent RNA isolations. PCR assays were performed in triplicates. Error bars indicate+/−standard error of the mean.
cDNA was synthesized from 2.0 μg total RNA using iSCRIPT cDNA synthesis kit (Bio-Rad). Real-time PCR reactions were performed in triplicates and normalized to GAPDH.
Employing the HepAD38 cell line that supports hepatitis B virus replication following tetracycline removal (Ladner et al., Antimicrobial Agents and Chemotherapy, 41:1715-1720, 1997), viral replication as well as expression of the Suz12-repressed and proliferation cluster genes were quantified 10 days after induction of hepatitis B virus replication (FIG. 7). Also, the effect of Plk1 inhibition on viral replication and expression of the proliferation cluster and Suz12 target genes was investigated. […] Under these conditions of Plk1 inhibition, expression of the proliferation cluster and Suz12-repressed genes on day 10 of hepatitis B virus replication was quantified (FIG. 7C and D). […]

Suz12 and Znf198 = test: Immunoblots of Suz12 and Znf198 protein levels in HepAD38 cell lysates; details: HepAD38 cells, day 10 of HBV replication; 500 nM for 24 h; vs. actin
Description: as §1, with “actin.” for “actin. A representative experiment is shown from three independent experiments.”, “Results are from three independent RNA isolations. PCR assays were performed in triplicates. Error bars indicate+/−standard error of the mean.” left out
(§2) Whole cell extract isolated without (−) or with (+) 1 addition of BI 2536 were immunoblotted for hepatitis B virus core antigen, caspase 3 and cleaved/active caspase. […] Expression of viral RNA was quantified by real-time PCR employing primer pairs described by Zhang et al. (Hepatology 53:1476-1485, 2011). […] Quantification of indicated proteins is by ImageJ software vs. actin. […]

HepAD38 cells = test: Apoptosis in HBV-replicating HepAD38 cells by immunoblot of pro-caspase-3 and caspase-3; details: 250 nM or 500 nM added on day 8 for 48 h or day 9 for 24 h
Excerpt: Whole cell extract isolated without (−) or with (+) 1 addition of BI 2536 were immunoblotted for hepatitis B virus core antigen, caspase 3 and cleaved/active caspase. […] Expression of viral RNA was quantified by real-time PCR employing primer pairs described by Zhang et al. (Hepatology 53:1476-1485, 2011). Results are the average from two independent WCE preparations. Error bars indicate+/−standard error of the mean. […] Quantification of indicated proteins is by ImageJ software vs. actin. Results are the average from two independent WCE preparations. Error bars indicate+/−standard error of the mean.
Employing the HepAD38 cell line that supports hepatitis B virus replication following tetracycline removal (Ladner et al., Antimicrobial Agents and Chemotherapy, 41:1715-1720, 1997), viral replication as well as expression of the Suz12-repressed and proliferation cluster genes were quantified 10 days after induction of hepatitis B virus replication (FIG. 7). Also, the effect of Plk1 inhibition on viral replication and expression of the proliferation cluster and Suz12 target genes was investigated. […] Under these conditions of Plk1 inhibition, expression of the proliferation cluster and Suz12-repressed genes on day 10 of hepatitis B virus replication was quantified (FIG. 7C and D). Expression of both gene clusters increased in the presence of hepatitis B virus replication (FIG. 7C and D).

hepatitis B virus = test: Hepatitis B virus replication in HepAD38 cells (genome equivalents in intracellular virions, core antigen immunoblots, viral RNA PCR); details: HepAD38 cells without tetracycline 10 days, 250 nM or 500 nM added on day 8 for 48 h or day 9 for 24 h
Description: as §1, with “actin.” for “actin. A representative experiment is shown from three independent experiments.”, “Results are from three independent RNA isolations. PCR assays were performed in triplicates. Error bars indicate+/−standard error of the mean.” left out
as §2

## CC[C@@H]1C(=O)N(C)c2cnc(Nc3ccc(C(=O)NC4CCN(C)CC4)cc3OC)nc2N1C1CCCC1 [BI 2536]
[1]
  expression of the Suz12 repressed genes DKK2, EpCAM and IGFII: significantly decreased
  expression of the proliferation genes: significantly reduced
[1]; listed as BI2536
  expression of the Suz12 repressed genes DKK2, EpCAM and IGFII: significantly reduced
Suz12 and Znf198
  protein level of Suz12: increased
  protein level of Znf198: increased
HepAD38 cells
  apoptosis (levels of pro-caspase-3 and caspase-3): did not induce apoptosis
Hepatitis B virus
  hepatitis B virus replication (genome equivalents in purified intracellular virions, core antigen immunoblots, viral RNA PCR): suppressed hepatitis B virus replication
Hepatitis B virus; listed as BI2536
  hepatitis B virus replication (genome equivalents in purified intracellular virions, core antigen immunoblots, viral RNA PCR): significantly reduced
